Experimental data: ChEMBL document CHEMBL1201862, “PubChem BioAssay data set” (2004)
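Values below derive from 48-hour exposures of cells grown in 96-well plates, with endpoints linearly interpolated between the two concentrations bracketing the appropriate inhibition level. GI50 marks 50% less growth.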 Calls of active or inactive are those of the source. No stated cut-off is given here; in the data, active = GI50 up to about 1.1 µM and inactive = higher.

Columns and labels:
Assay in all cases: inhibition of tumour cell growth, NCI panel, 48 h
OVCAR-5 = test system: OVCAR-5
KM12 = test system: KM12
CAKI-1 = test system: CAKI-1
SF-268 = test system: SF-268
SW-620 = test system: SW-620
PC-3 = test system: PC-3
MDA-MB-435 = test system: MDA-MB-435
MDA-MB-231 = test system: MDA-MB-231
NCI/ADR-RES = test system: NCI/ADR-RES
RXF 393 = test system: RXF 393
NCI-H23 = test system: NCI-H23
OVCAR-3 = test system: OVCAR-3
TK-10 = test system: TK-10
DU-145 = test system: DU-145
SF-539 = test system: SF-539
K562 = test system: K562
IGROV-1 = test system: IGROV-1

Row | SMILES | GI50 (OVCAR-5) | GI50 (KM12) | GI50 (CAKI-1) | GI50 (SF-268) | GI50 (SW-620) | GI50 (PC-3) | GI50 (MDA-MB-435) | GI50 (MDA-MB-231) | GI50 (NCI/ADR-RES) | GI50 (RXF 393) | GI50 (NCI-H23) | GI50 (OVCAR-3) | GI50 (TK-10) | GI50 (DU-145) | GI50 (SF-539) | GI50 (K562) | GI50 (IGROV-1)
1 | CCCCSCc1nc2nc(Cl)c(Cl)nc2[nH]1 | 30.9 µM (inactive) | 29.8 µM (inactive) | 23.7 µM (inactive) | 35.6 µM (inactive) | 28.5 µM (inactive) | 31.6 µM (inactive) | 33.5 µM (inactive) | 24.6 µM (inactive) | 27 µM (inactive) | 19.4 µM (inactive) | 16.8 µM (inactive) | 12.4 µM (inactive) | 27.9 µM (inactive) | 32.5 µM (inactive) | 50.2 µM (inactive) | 24 µM (inactive) | 33.1 µM (inactive)
2 | Nc1ccc(S(=O)(=O)c2ccc(NC(=O)c3cccnc3)cc2)cc1 | > 100 µM (inactive) | > 100 µM (inactive) | > 100 µM (inactive) | > 100 µM (inactive) | > 100 µM (inactive) | 75 µM (inactive) | > 100 µM (inactive) | > 100 µM (inactive) | > 100 µM (inactive) | 56.4 µM (inactive) | > 100 µM (inactive) | > 100 µM (inactive) | > 100 µM (inactive) | > 100 µM (inactive) |  | 78 µM (inactive) | > 100 µM (inactive)
3 | CCOc1cc2c(cc1O)/C(=N\N)C[C@@H]1[C@@H]2CC[C@]2(C)[C@@H](O)CC[C@@H]12 | 36.4 µM (inactive) | 4.71 µM (inactive) | 5.43 µM (inactive) | 5.3 µM (inactive) | 1.85 µM (inactive) | 6.34 µM (inactive) | 0.281 µM (active) | 5.62 µM (inactive) | 3.86 µM (inactive) | 5.75 µM (inactive) | 7.01 µM (inactive) | 2.32 µM (inactive) | 22.2 µM (inactive) | 8.73 µM (inactive) | 3.13 µM (inactive) | 0.42 µM (active) | 6.97 µM (inactive)
4 | Nc1ccc(S(=O)(=O)Nc2nc3ccccc3nc2N2CCCCCC2)cc1 | 38.5 µM (inactive) | 30.9 µM (inactive) | 26.4 µM (inactive) | 45.9 µM (inactive) | 20 µM (inactive) | 29.8 µM (inactive) | 18.1 µM (inactive) | 26.9 µM (inactive) | 30.8 µM (inactive) | 16 µM (inactive) | 9.06 µM (inactive) | 18.3 µM (inactive) | 31.8 µM (inactive) | 30.9 µM (inactive) | 18.5 µM (inactive) | 17.6 µM (inactive) | 34.4 µM (inactive)
5 | S=C(N/N=C(/c1ccccc1)c1ccccn1)N1CCCCCC1 | 0.0764 µM (active) | < 0.0306 µM (active) | 0.0818 µM (active) | < 0.0391 µM (active) | < 0.0214 µM (active) | < 0.0198 µM (active) | 0.0843 µM (active) | 0.01 µM (active) | < 0.0194 µM (active) | 0.67 µM (active) | 0.0538 µM (active) | 0.01 µM (active) | 0.112 µM (active) | 0.369 µM (active) | 0.198 µM (active) | < 0.0115 µM (active) | < 0.0198 µM (active)
6 | O=c1cc(NCC2CCCCC2)[nH]c(=O)[nH]1 | > 100 µM (inactive) | > 100 µM (inactive) |  | > 100 µM (inactive) | > 100 µM (inactive) | > 100 µM (inactive) | > 100 µM (inactive) | > 100 µM (inactive) | > 100 µM (inactive) | > 100 µM (inactive) | > 100 µM (inactive) | > 100 µM (inactive) | > 100 µM (inactive) | > 100 µM (inactive) | > 100 µM (inactive) | > 100 µM (inactive) | > 100 µM (inactive)
7 | N#CC1=C(N)OC(c2cccc([N+](=O)[O-])c2)C1(C#N)C#N (configuration not stated) | 20.6 µM (inactive) | > 10 µM (inactive) | 2.98 µM (inactive) | 26.5 µM (inactive) | > 10 µM (inactive) | 23.7 µM (inactive) | 23.3 µM (inactive) | > 10 µM (inactive) | 34.3 µM (inactive) | 20 µM (inactive) | 21.2 µM (inactive) |  | 19.1 µM (inactive) | 17.3 µM (inactive) | 21.8 µM (inactive) | 26.2 µM (inactive) | 17.6 µM (inactive)
8 | COc1ccc(/C=N/NC(=O)c2ccccc2Nc2ccccc2C(=O)N/N=C/c2ccc(OC)cc2)cc1 | > 100 µM (inactive) | > 100 µM (inactive) | > 100 µM (inactive) | > 100 µM (inactive) | > 100 µM (inactive) | > 100 µM (inactive) | > 100 µM (inactive) | 65.6 µM (inactive) | > 100 µM (inactive) | > 100 µM (inactive) | > 100 µM (inactive) | > 100 µM (inactive) | > 100 µM (inactive) | > 100 µM (inactive) |  | > 100 µM (inactive) | > 100 µM (inactive)
9 | N/C(=N\N=C\c1cc2ccccc2s1)c1cnccn1 | > 100 µM (inactive) | > 100 µM (inactive) | > 100 µM (inactive) | > 100 µM (inactive) | > 100 µM (inactive) | 92.3 µM (inactive) | > 100 µM (inactive) | 82.6 µM (inactive) | > 100 µM (inactive) | > 100 µM (inactive) | > 100 µM (inactive) | > 100 µM (inactive) | 87.7 µM (inactive) | > 100 µM (inactive) | > 100 µM (inactive) | 3.85 µM (inactive) | > 100 µM (inactive)
10 | N#Cc1cnn2ccn(C3OC(COC(=O)c4ccccc4)C(OC(=O)c4ccccc4)C3OC(=O)c3ccccc3)c12 (configuration not stated) | > 21.5 µM (inactive) | 17.3 µM (inactive) | 17.2 µM (inactive) | > 21.5 µM (inactive) | > 21.5 µM (inactive) | 5.56 µM (inactive) | > 21.5 µM (inactive) | > 21.5 µM (inactive) | > 21.5 µM (inactive) | > 21.5 µM (inactive) | > 21.5 µM (inactive) | > 21.5 µM (inactive) | > 31.6 µM (inactive) | > 21.5 µM (inactive) | > 21.5 µM (inactive) | > 21.5 µM (inactive) | > 21.5 µM (inactive)
11 | O=C1c2ccccc2-c2ccc(O)cc21 | 26.7 µM (inactive) | 16.8 µM (inactive) | 14.8 µM (inactive) | 19.1 µM (inactive) | 42.3 µM (inactive) | 17.2 µM (inactive) | 20.2 µM (inactive) | 16.9 µM (inactive) | 31.8 µM (inactive) | 10.4 µM (inactive) | 16.9 µM (inactive) |  | 24.5 µM (inactive) | 20.1 µM (inactive) | 22.9 µM (inactive) | 31.4 µM (inactive) | 18.6 µM (inactive)
12 | O=C1CC(c2ccsc2)n2cccc21 (configuration not stated) | > 100 µM (inactive) | > 100 µM (inactive) | > 100 µM (inactive) | > 100 µM (inactive) | > 100 µM (inactive) | > 100 µM (inactive) | > 100 µM (inactive) | > 100 µM (inactive) | > 100 µM (inactive) | > 100 µM (inactive) | > 100 µM (inactive) | > 100 µM (inactive) | > 100 µM (inactive) | > 100 µM (inactive) | > 100 µM (inactive) | > 100 µM (inactive) | > 100 µM (inactive)
13 | COc1cc2nc(-c3cccs3)[nH]c(=O)c2cc1OC | 28.6 µM (inactive) | > 100 µM (inactive) | > 100 µM (inactive) | > 100 µM (inactive) | > 100 µM (inactive) | > 100 µM (inactive) | > 100 µM (inactive) | 23.2 µM (inactive) | > 100 µM (inactive) | > 100 µM (inactive) | > 100 µM (inactive) | > 100 µM (inactive) | > 100 µM (inactive) | > 100 µM (inactive) | 38.7 µM (inactive) | > 100 µM (inactive) | 19.9 µM (inactive)
14 | CC1(C)N=c2c(ncn2Cc2ccccc2)=C(C(N)=O)N1 | > 100 µM (inactive) | > 100 µM (inactive) | > 100 µM (inactive) | > 100 µM (inactive) | > 100 µM (inactive) | > 100 µM (inactive) | > 100 µM (inactive) | > 100 µM (inactive) | > 100 µM (inactive) | > 100 µM (inactive) | > 100 µM (inactive) | > 100 µM (inactive) | > 100 µM (inactive) | > 100 µM (inactive) | > 100 µM (inactive) | > 100 µM (inactive) | > 100 µM (inactive)
15 | O=C(/C=C/NC(=O)OCc1ccccc1)OCc1ccccc1 | > 100 µM (inactive) | > 100 µM (inactive) | > 100 µM (inactive) | > 100 µM (inactive) | > 100 µM (inactive) | > 100 µM (inactive) | > 100 µM (inactive) | 28.1 µM (inactive) | > 100 µM (inactive) | > 100 µM (inactive) | > 100 µM (inactive) | > 100 µM (inactive) | 86.7 µM (inactive) | > 100 µM (inactive) | 64.9 µM (inactive) | > 100 µM (inactive) | > 100 µM (inactive)
16 | CCOC(=O)[C@@]12CCC(C1=O)[C@](C)(O)C[C@@H]2c1ccccc1 | 80.9 µM (inactive) | 31.8 µM (inactive) | 39.2 µM (inactive) | 36.2 µM (inactive) | > 100 µM (inactive) | 34 µM (inactive) | 8.07 µM (inactive) | 36.5 µM (inactive) | 29 µM (inactive) | 29.3 µM (inactive) | 66.5 µM (inactive) | 28.2 µM (inactive) | > 100 µM (inactive) | 85.9 µM (inactive) | 32.7 µM (inactive) | 30.4 µM (inactive) | 35.4 µM (inactive)
17 | Nc1ncnc2c1nnn2C1C=CC(CP(=O)(O)O)C1 (configuration not stated) | > 100 µM (inactive) | > 100 µM (inactive) |  | > 100 µM (inactive) | > 100 µM (inactive) | > 100 µM (inactive) | > 10 µM (inactive) | > 100 µM (inactive) | > 100 µM (inactive) | > 100 µM (inactive) | > 100 µM (inactive) | > 100 µM (inactive) | > 100 µM (inactive) | > 100 µM (inactive) | > 100 µM (inactive) |  | > 100 µM (inactive)
